Assay results reported in paper PMC5658702, “Lysine acetylome profiling uncovers novel histone deacetylase substrate proteins in Arabidopsis” (Molecular Systems Biology, 2017).
Substitutions are numbered along the chain they refer to.

Key:
Type in all cases: biochemical
[1] = target: T1, RCA-β1 (RCAβ1; 6x-HisRCAβ1) (Arabidopsis thaliana, UniProt F4IVZ7, K438Q); assay: ATPase activity, KinaseGlo Max luminescent ATP consumption assay; conditions: read-out: % inhibition at 55 uM ADP
T1 construct: N-terminal 6xHis tag, pCDFDuet-1, E. coli Rosetta-gami
T1 sequence (F4IVZ7 59-441 K438Q): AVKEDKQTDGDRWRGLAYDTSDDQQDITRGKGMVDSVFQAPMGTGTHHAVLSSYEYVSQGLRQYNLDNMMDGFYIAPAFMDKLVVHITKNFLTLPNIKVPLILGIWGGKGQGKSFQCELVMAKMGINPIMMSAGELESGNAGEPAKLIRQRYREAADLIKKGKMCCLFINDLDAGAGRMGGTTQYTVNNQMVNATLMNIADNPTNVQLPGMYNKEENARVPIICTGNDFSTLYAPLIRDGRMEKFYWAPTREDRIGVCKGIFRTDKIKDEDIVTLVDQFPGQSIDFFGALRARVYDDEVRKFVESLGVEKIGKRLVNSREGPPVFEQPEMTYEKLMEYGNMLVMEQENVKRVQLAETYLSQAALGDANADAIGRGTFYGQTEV

[2] = target: T2, RCA-β1 (RCAβ1; 6x-HisRCAβ1) (Arabidopsis thaliana, UniProt F4IVZ7); assay: as above; conditions: read-out: % inhibition at 55 uM ADP
T2 construct: N-terminal 6xHis tag, pCDFDuet-1, E. coli Rosetta-gami
T2 sequence (F4IVZ7 59-441): T1 sequence (F4IVZ7 59-441 K438Q) with Q380K

[3] = target: T3, RCA-β1 (RCAβ1; 6x-HisRCAβ1) (Arabidopsis thaliana, UniProt F4IVZ7, K438R); assay: as above; conditions: read-out: % inhibition at 55 uM ADP
T3 construct: N-terminal 6xHis tag, pCDFDuet-1, E. coli Rosetta-gami
T3 sequence (F4IVZ7 59-441 K438R): T1 sequence (F4IVZ7 59-441 K438Q) with Q380R

HDA14 (6xHis-HDA14) = target: T4, HDA14 (6xHis-HDA14) (Arabidopsis thaliana, UniProt Q941D6); assay: colorimetric deacetylase assay, acetylated p53 peptide p53-5,2-ANB, trypsin-coupled, […] nm
T4 construct: lacks first 45 aa (predicted signal peptide); N-terminal 6xHis tag (pEXP-5-NT/TOPO); E. coli BL21(DE3); apoenzyme reloaded with Zn2+ or Co2+
T4 sequence (Q941D6 46-423): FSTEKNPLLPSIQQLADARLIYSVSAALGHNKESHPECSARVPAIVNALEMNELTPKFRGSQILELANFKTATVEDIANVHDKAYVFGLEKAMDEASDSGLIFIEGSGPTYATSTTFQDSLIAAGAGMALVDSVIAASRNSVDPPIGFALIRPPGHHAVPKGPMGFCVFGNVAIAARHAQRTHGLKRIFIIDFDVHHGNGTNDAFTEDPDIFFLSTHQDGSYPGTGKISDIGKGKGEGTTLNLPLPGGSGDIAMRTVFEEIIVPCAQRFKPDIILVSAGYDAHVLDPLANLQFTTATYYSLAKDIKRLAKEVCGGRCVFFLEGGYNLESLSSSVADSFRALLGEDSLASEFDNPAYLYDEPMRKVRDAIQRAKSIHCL

Row | SMILES | inhibition at 55 µM [1] [%] | inhibition at 55 µM [2] [%] | inhibition at 55 µM [3] [%] | inhibition at 5 µM (HDA14 (6xHis-HDA14)) [%]
1 | Nc1ncnc2c1ncn2[C@@H]1O[C@H](COP(=O)(O)OP(=O)(O)O)[C@@H](O)[C@H]1O [ADP] | ~8 | ~19 | ~30 | 
2 | CC(/C=C/C(=O)NO)=C\[C@@H](C)C(=O)c1ccc(N(C)C)cc1 [trichostatin A] |  |  |  | 80
